# “Also recorded” adds a separate entry of the source.
# Key:
# [1] = tested on: NADH production by serine catabolism; experiment: In vivo [2,3,3-2H]serine infusion, malate labeling; conditions: WT C57BL6/J mice, SHIN2 200 mg/kg ip single injection before 2.5 h tracer infusion
# Method: Mouse breeding and isotope tracing. Animal studies followed protocols approved by the Princeton University Institutional Animal Care and Use Committee and the Rutgers University Institutional Animal Care and Use Committee. NDUFS4+/− mice were purchased from Jackson Laboratory. The mice were on normal light cycle (7 AM-7 PM). In vivo infusion was performed on 9-week old normal C57BL/6 mice pre-catheterized on the right jugular vein, and 4-week old NDUFS4−/− or NDUFS4+/+ mice pre-catheterized on the jugular vein. Infusion was performed for 2.5 h to achieve isotopic pseudo-steady state. The mouse infusion setup included a tether and swivel system, connecting to the button pre-implanted under the back skin of mice. Mice were fasted from 9:00 am to 2 pm, and infused from 2 pm till 4:30 pm. […]
# Calculation of 2H-serine contribution to malate, aspartate, and NADH: For malate and aspartate, the 2H-labeling fraction was measured directly (fractional size of 2H-peak relative to sum of all peaks, after isotope correction as above). For NADH, the 2H-labeling fraction was measured based on the active hydride labeling (x), which was determined from the labeling pattern of NAD+ and NADH by least square fitting in MATLAB of the observed experimental data (after natural isotope correction) to the below vectors (Liu et al., 2016a). […]
# [2] = tested on: NDUFS4−/− mice; experiment: Treatment of NDUFS4−/− mice (mitochondrial disease model); format: in vivo
# Method: NDUFS4−/− mice were housed with normal mice and gel food was supplied to guarantee sufficient food supply. Mice were grouped as vehicle control group and SHIN2 treatment groups. SHIN2 was dissolved in 20% 2-hydroxypropyl-cyclodextrin solution, and delivered by intraperitoneal (50 μg/g mice) b.i.d. Mice weights were recorded every day. Limb clasps were recorded daily, with mice annotated as having the pathological limb clasping phenotype on the third consecutive day of clasping. 20% weight loss of the peak weight for each mouse is considered as the humane endpoint.
# Mouse Model. B6.129S4-Ndufs4+/− mice were purchased from Jackson laboratories. The mice are heterozygous for a protein in mitochondrial complex 1 and have been bred to generate homozygous knockout mouse for the study of mitochondrial deficiency. These mice are a model of mitochondrial disease and knockouts are healthy until approximately 5 weeks age, but develop lethal encephalomyopathy by 7 weeks.
# Treatment strategy: Mice were grouped as vehicle treatment group and KDG112 treatment group. KDG112 was dissolved in 20% hydroxypropyl cyclodextrin to a final concentration of 5 mg/ml. Mice were dosed B.I.D at 50 mg/kg ip. Mice weight and body temperature are recorded, and body condition score were given according to the chart below.
# [3] = KDG112 50 mg/kg ip B.I.D, compared to vehicle
smiles,measurement,setting,value
Cc1n[nH]c2c1C(c1cc(C#CCCCO)cc(CO)c1)(C(C)C)C(C#N)=C(N)O2 (stereo not drawn) [SHIN2],"malate labeling from [2,3,3-2H]serine (NADH production by serine catabolism)",[1],blocks NADH production by serine catabolism in vivo; also recorded: blocked most malate labeling
same,body condition score,[2]; [3],lower score
same,body temperature,[2]; [3],higher body temperature
same,locomotor activity,[2]; [3],better locomotor activity
same,symptoms of hind limb clasp,[2]; [3],delayed symptoms of hind limb clasp
same,pathological limb clasping,"[2]; SHIN2 50 mg/kg b.i.d. from postnatal day 25±4, versus vehicle, 50 mg/kg",Delayed occurrence of limb clasping; also recorded: delayed pathological clasping behavior
same,survival,"[2]; SHIN2 50 mg/kg b.i.d. versus vehicle, p=0.18, log-rank Test",not significantly altering survival
same,time after day 49 until hind limb clasping symptoms develop,"[2]; first pair of pups, KDG112 treated mouse",10 days
same,leg control and cage edge test,"[2]; first pair of pups, day 49 (P49), treatment from P29","can control its leg normally as wild type, and can walk freely on the edge test"
same,body weight,"[2]; first pair of pups, day 63",still maintains its weight
same,day at which symptoms such as hind limb clasping develop,"[2]; second pair of pups, KDG112 treated mouse",47 days
same,behaviour,"[2]; second pair of pups, day 38, treatment from P28",behaves normally

# From patent US20230100559A1, “Compositions and Methods for Treatment of Disease by Manipulation of Serine Metabolism” (The Trustees of Princeton University, priority 2020, published 2023)
